Results on 20 compounds are retold here after ChEMBL document CHEMBL4340569, “Optimization of a small-molecule Lipid II binder” (Bioorg Med Chem Lett, 2019).

The nature of data set [1]: Binding affinity to bacterial lipid 2 by surface plasmon resonance assay. Details: species or system Bacteria.
The test system of data set [2] is Staphylococcus aureus. Kind of data set: Antimicrobial activity against Staphylococcus aureus ATCC […] by broth dilution method. Format: functional. Particulars: ATCC 29213.
Data set [3] concerns Enterococcus faecium. Kind of data set: Antimicrobial activity against Enterococcus faecium EF1509 by broth dilution method. Type of data set: functional.
For data set [4], the system named is Staphylococcus aureus. The data set is described as follows: Antimicrobial activity against methicillin-resistant Staphylococcus aureus 1094 by broth dilution method. Format: functional.
In data set [5] the test system is Staphylococcus aureus. Kind of data set: Antimicrobial activity against methicillin-resistant Staphylococcus aureus HFH-30123 by broth dilution method. Format: functional.
Data set [6] concerns Enterococcus faecium. The data set is described as follows: Antimicrobial activity against vancomycin-resistant Enterococcus faecium EF1509 by broth dilution method. Type of data set: functional.
In data set [7] the test system is Enterococcus faecium. The data set is described as follows: Antimicrobial activity against vancomycin-resistant Enterococcus faecium F118 by broth dilution method. Type of data set: functional.
The test system of data set [8] is Klebsiella pneumoniae. Kind of data set: Antimicrobial activity against carbapenemase KPC producing Klebsiella pneumoniae NR-15410 by broth dilution method. Type of data set: functional.
Data set [9] deals with Klebsiella pneumoniae. Kind of data set: Antimicrobial activity against carbapenemase KPC producing Klebsiella pneumoniae NR-15411 by broth dilution method. Format: functional.
Another data set has as its system Acinetobacter baumannii. The data set is described as follows: Antimicrobial activity against Acinetobacter baumannii ATCC 19606 by broth dilution method. Type of data set: functional. Particulars: ATCC 19606 = CIP 70.34 = JCM 6841.
Data set [10] in a line: Cytotoxicity against human HeLa cells incubated for 72 hrs. Format: cell-based.
For data set [11], the system named is Pseudomonas aeruginosa. Kind of data set: Antimicrobial activity against Pseudomonas aeruginosa PAO1 by broth dilution method. Format: functional.
Data set [12] deals with Pseudomonas aeruginosa. The data set is described as follows: Antimicrobial activity against Pseudomonas aeruginosa X13273 by broth dilution method. Format: functional.
The subject of data set [13] is Pseudomonas aeruginosa. The data set is described as follows: Antimicrobial activity against Pseudomonas aeruginosa ATCC 27853 by broth dilution method. Format: functional.
Data set [14] in a line: Antimicrobial activity against Enterobacter cloacae ATCC 13047 by broth dilution method. Format: functional, Enterobacter cloacae subsp. cloacae.
A further data set deals with Klebsiella aerogenes. Kind of data set: Antimicrobial activity against Klebsiella aerogenes ATCC 13048 by broth dilution method. Type of data set: functional.
Data set [15] can be described thus: Ratio of EC50 for human HeLa cells to MIC of Enterococcus faecium. Format: toxicity.
Data set [16] can be described thus: Half life in CD1 mouse at […], iv measured after 5 mins to 14 hrs by LC/MS/MS analysis. Type of data set: ADME, organism-based. Conditions: in vivo; for half-life: CD1, mouse.
A short description of data set [17]: Cmax in CD1 mouse at […], iv measured after 5 mins to 14 hrs by LC/MS/MS analysis. Format: ADME, organism-based. Also on record: dose 2.5 mg/kg, route intravenous. Particulars: in vivo.
Data set [18] in a line: AUClast in CD1 mouse at […], iv measured after 5 mins to 14 hrs by LC/MS/MS analysis. Details: time upper 14 hr, dose 2.5 mg/kg, time lower 0.083 hr, route intravenous. Particulars: in vivo. Format: ADME, organism-based.
Data set [19] can be described thus: AUC (infinity) in CD1 mouse at […], iv measured after 5 mins to 14 hrs by LC/MS/MS analysis. Format: ADME, organism-based. Details: dose 2.5 mg/kg, time infinity, route intravenous. Particulars: in vivo.
Data set [20] in a line: Extrapolated AUC in CD1 mouse at […], iv measured after 5 mins to 14 hrs by LC/MS/MS analysis. Format: ADME, organism-based. Particulars: in vivo.
The nature of data set [21]: Dose normalized AUClast in CD1 mouse at […], iv measured after 5 mins to 14 hrs by LC/MS/MS analysis. Type of data set: ADME, organism-based. Particulars: in vivo.
Data set [22] in a line: Volume of distribution at steady state in CD1 mouse at […], iv measured after 5 mins to 14 hrs by LC/MS/MS analysis. Type of data set: ADME, organism-based. Particulars: in vivo; for Vd: CD1, mouse, read-out: Vdss.
The nature of data set [23]: MRT in CD1 mouse at […], iv measured after 5 mins to 14 hrs by LC/MS/MS analysis. Type of data set: ADME, organism-based. Particulars: in vivo.
Data set [24] can be described thus: Toxicity in CD1 mouse assessed as induction of adverse clinical observations at […], iv measured after 5 mins to 14 hrs. Format: organism-based. Particulars: in vivo.

`CN(C)c1ccc(/C=C/c2cc(-c3ccc(F)cc3)cc(-c3ccc(F)cc3)[o+]2)cc1.F[B-](F)(F)F`: in [1], the Kd worked out at 340 nM. The MIC was 3.9 µM with Staphylococcus aureus [2]; 2 µM against Enterococcus faecium [3]; 4.42 µM in the data set on Staphylococcus aureus [4]; 6.25 µM with Staphylococcus aureus [5]; 1.56 µM in the data set on Enterococcus faecium [6]; 6.25 µM against Enterococcus faecium [7]. Also, the MIC against Klebsiella pneumoniae [8], in the data set on Klebsiella pneumoniae [9], in the data set on Acinetobacter baumannii, against Pseudomonas aeruginosa [11], against Pseudomonas aeruginosa [12] and against Pseudomonas aeruginosa [13] was at least 80 µM in each case. In addition, the MIC (in data set [14]; against Klebsiella aerogenes) was at least 80 µM throughout. The compound also yielded a CC50 at 72 h in data set [10] of at least 80 µg/mL. In addition, in [15], the selectivity ratio was at least 80. This compound showed a half-life in [16] of 6.81 h. The maximum concentration (Cmax) in [17] came out at 3220 ng/mL. Also, the AUC(0-t) in data set [18] came to 565 ng·h/mL. Besides, in data set [19], the AUC was found to be 578 ng·h/mL. The “%AUCextra” value in [20] is 2.25%. Moreover, the AUClast/dose in [21] came out at 56.5 ng·h/mL. The Vd in data set [22] came out at 46.3 L/kg. Besides, in [23] (CD1, mouse, read-out: MRT), the MRT was 1.74 h. Moreover, in [24], the Activity entry is listed as “Non-Toxic”.
`CC(=O)N1CCN(c2ccc(/C=C/c3cc(-c4ccc(F)cc4)cc(-c4ccc(F)cc4)[o+]3)cc2)CC1`: the MIC in the data set with Staphylococcus aureus [2] and in the data set on Enterococcus faecium [3] was over 80 µM throughout.
Regarding `ClCCN(CCCl)c1ccc(/C=C/c2cc(-c3ccc(Br)cc3)cc(-c3ccc(Br)cc3)[o+]2)cc1`, the MIC against Staphylococcus aureus [2] and with Enterococcus faecium [3] was over 80 µM throughout.
Take `OCCN(CCO)c1ccc(/C=C/c2cc(-c3ccc(Br)cc3)cc(-c3ccc(Br)cc3)[o+]2)cc1`: the MIC with Staphylococcus aureus [2] and with Enterococcus faecium [3] was over 80 µM in each case.
With `CN(/C=C/c1cc(-c2cccc(Br)c2)cc(-c2cccc(Br)c2)[o+]1)CCO`, the MIC in the data set with Staphylococcus aureus [2] and against Enterococcus faecium [3] was over 80 µM each time.
`CN(C)c1ccc(/C=C/c2cc(-c3ccc(Br)cc3)cc(-c3ccc(Br)cc3)[o+]2)cc1.F[B-](F)(F)F`: the affinity in data set [1], expressed as Kd, was 150 nM. The MIC in the data set on Staphylococcus aureus [2] is 23.4 to 80 µM; in the data set with Enterococcus faecium [3], 46.8 to 80 µM; with Staphylococcus aureus [4], 32 µM; with Staphylococcus aureus [5] it was 32 µM; against Enterococcus faecium [6] it was 2.82 µM; against Enterococcus faecium [7] it was 5.65 µM. In addition, the MIC in the data set on Klebsiella pneumoniae [8], with Klebsiella pneumoniae [9], against Acinetobacter baumannii, against Pseudomonas aeruginosa [11], in the data set on Pseudomonas aeruginosa [12] and with Pseudomonas aeruginosa [13] was at least 80 µM throughout. For the same compound, the MIC (in data set [14]; with Klebsiella aerogenes) was at least 80 µM throughout. Further, in data set [10], the CC50 at 72 h was at least 80 µg/mL. For the same compound, in data set [15], the selectivity ratio is at least 80. The same compound displayed a t1/2 in [16] (mouse) of 13.3 h. The “%AUCextra” value in [20] is 24.3%. The AUClast/dose in data set [21] came out at 536 ng·h/mL. The same compound yielded a Vdss in data set [22] (mouse) of 22.8 L/kg. The MRT in data set [23] (mouse) was found to be 7.29 h. Besides, the Activity entry in data set [24] is “Non-Toxic”.
Regarding `CN1/C(=C/C=C/c2cc(-c3ccccc3)cc(-c3ccccc3)[o+]2)C(C)(C)c2ccccc21.F[B-](F)(F)F`, the half-life in data set [16] was 0.227 h. The same compound registered a Cmax in data set [17] of 101 ng/mL. In [18], the AUC(0-t) was determined as 26.9 ng·h/mL. In addition, in data set [19], the area under the curve (AUC) amounted to 27.9 ng·h/mL. Also, the “%AUCextra” value in data set [20] is recorded as 4.38%. The AUClast/dose in data set [21] came to 26.9 ng·h/mL. In data set [22], the Vd stood at 12.2 L/kg. In [23] (CD1, mouse, read-out: MRT), the mean residence time MRT was found to be 0.226 h. Moreover, the Activity result in [24] is “Non-Toxic”.
Regarding `CCC(=O)N1CCN(c2ccc(/C=C/c3cc(-c4cccc(Br)c4)cc(-c4cccc(Br)c4)[o+]3)cc2)CC1`, the MIC against Staphylococcus aureus [2] was determined as 12.8 µM; against Enterococcus faecium [3], 51.4 µM.
Taken in the same sequence, the figures for `ClCCN(/C=C/c1cc(-c2cccc(Br)c2)cc(-c2cccc(Br)c2)[o+]1)CCCl` were 49.3 µM and 49.3 µM.
Compound `OCCN(CCO)c1ccc(/C=C/c2cc(-c3cccc(F)c3)cc(-c3cccc(F)c3)[o+]2)cc1` gave a Kd in data set [1] of 310 nM. The MIC was 2.1 µM in the data set with Staphylococcus aureus [2]; 3.9 µM against Enterococcus faecium [3]; 12.5 µM against Staphylococcus aureus [4]; 12.5 µM in the data set with Staphylococcus aureus [5]; 3.13 µM with Enterococcus faecium [6]; 12.5 µM in the data set on Enterococcus faecium [7]. Moreover, the minimal inhibitory concentration (MIC) in the data set with Klebsiella pneumoniae [8], against Klebsiella pneumoniae [9], against Acinetobacter baumannii, in the data set with Pseudomonas aeruginosa [11], against Pseudomonas aeruginosa [12] and in the data set with Pseudomonas aeruginosa [13] was at least 80 µM each time. Moreover, the MIC (in data set [14]; against Klebsiella aerogenes) was at least 80 µM in each case. In addition, the CC50 at 72 h in data set [10] is at least 80 µg/mL. Besides, the selectivity ratio in data set [15] was determined as 49.3.
Take `Brc1ccc(-c2cc(/C=C/c3ccc(N4CCOCC4)cc3)[o+]c(-c3ccc(Br)cc3)c2)cc1`: the MIC with Staphylococcus aureus [2] and against Enterococcus faecium [3] was over 80 µM each time.
On to `O=C(c1ccccc1)N1CCN(c2ccc(/C=C/c3cc(-c4ccc(F)cc4)cc(-c4ccc(F)cc4)[o+]3)cc2)CC1`, for which the MIC in the data set with Staphylococcus aureus [2] was 28.5 µM; against Enterococcus faecium [3], 57 µM.
On the same counts, the results for `CN(C)c1ccc(/C=C/c2ccc(/C=C/c3cc(-c4ccc(Br)cc4)cc(-c4ccc(Br)cc4)[o+]3)cc2)cc1` are over 80 µM and over 80 µM.
Consider `Brc1ccc(-c2cc(/C=C/c3ccc(N4CCCCC4)cc3)[o+]c(-c3ccc(Br)cc3)c2)cc1`, for which the MIC against Staphylococcus aureus [2] and against Enterococcus faecium [3] was over 80 µM in each case.
For `CN1/C(=C/C=C/c2cc(-c3ccc(Br)cc3)cc(-c3ccc(Br)cc3)[o+]2)C(C)(C)c2cc(Cl)ccc21`, the MIC in the data set with Staphylococcus aureus [2] turned out to be 45.1 µM; in the data set with Enterococcus faecium [3] it was 22.5 µM.
On the same counts, the results for `CN(CCO)c1ccc(/C=C/c2cc(-c3ccc(Br)cc3)cc(-c3ccc(Br)cc3)[o+]2)cc1` are over 80 µM and over 80 µM.
On the same counts, the results for `CN1/C(=C/c2ccc(/C=C/c3cc(-c4ccc(Br)cc4)cc(-c4ccc(Br)cc4)[o+]3)cc2)C(C)(C)c2ccccc21` are 24.5 µM and 12.2 µM.
Regarding `Fc1ccc(-c2cc(/C=C/N3CCNCC3)[o+]c(-c3ccc(F)cc3)c2)cc1`, the Kd in [1] came out at 6200 nM. For the same compound, the MIC in the data set on Staphylococcus aureus [2] amounted to 3.8 µM; in the data set with Enterococcus faecium [3] it was 1.9 µM; in the data set on Staphylococcus aureus [4] it was 6.25 µM; against Staphylococcus aureus [5], 6.25 µM; in the data set with Enterococcus faecium [6] it was 3.13 µM; in the data set on Enterococcus faecium [7], 8.84 µM. Further, the MIC in the data set on Klebsiella pneumoniae [8], in the data set on Klebsiella pneumoniae [9], in the data set with Acinetobacter baumannii, in the data set with Pseudomonas aeruginosa [11], in the data set with Pseudomonas aeruginosa [12] and in the data set with Pseudomonas aeruginosa [13] was at least 80 µM in each case. In addition, the MIC (in data set [14]; against Klebsiella aerogenes) was at least 80 µM throughout. In addition, the CC50 at 72 h in data set [10] was at least 80 µg/mL. The selectivity ratio in data set [15] was determined as 62.6.
Regarding `CCN(CC)c1ccc(/C=C/c2cc(-c3ccc(Br)cc3)cc(-c3ccc(Br)cc3)[o+]2)cc1`, the MIC with Staphylococcus aureus [2] and against Enterococcus faecium [3] was over 80 µM in each case.
As to `CC(C)(C)OC(=O)N1CCN(c2ccc(/C=C/c3cc(-c4ccc(F)cc4)cc(-c4ccc(F)cc4)[o+]3)cc2)CC1`, the MIC with Staphylococcus aureus [2] and with Enterococcus faecium [3] was over 80 µM each time.
